Converted amounts (≈) assume the structure as drawn.
Columns and labels:
[1] = system: Staphylococcus aureus (ATCC-6538); test: Antibacterial assay, micro broth dilution; assay type: cell-based; conditions: ATCC6538, read-out: S. aureus MIC
Excerpt: The micro broth dilution method was used to establish the antibacterial potential of test samples against Staphylococcus aureus (ATCC-6538), Bacillus subtilis (ATCC-6633), Escherichia coli (ATCC-25922), Klebsiella pneumoniae (ATCC-1705), and Pseudomonas aeruginosa (ATCC-15442) and for the resistant strains of MRSA Staphylococcus aureus, P. aeruginosa and Escherichia coli. The procedure used is described by ([Sarker et al., 2007]). Bacterial inoculum was formed under aseptic conditions keeping the density near 5 × 10^4 CFU/mL in pre-autoclaved nutrient broth. Test samples of an aliquot of 5 µL were shifted to labeled wells of 96 well plates, and after that addition of 195 µL of nutrient broth; was accomplished. After that, a 2-fold serial dilution of every sample was arranged to get final concentrations of 12.5 μg/mL. Then, with the help of a micropipette, 195 µL of bacterial culture of respective strains was poured into each well; further advancement was incubating of plates for 30 min at the temperature of 37°C. […] Incubation of plates was again carried out at 37°C for 1 day, absorbance was noted, and net change in turbidity was the difference between two values of absorbance.
Schiff base tri-azo compounds were investigated for antibacterial potential. […] 6.25 μg/mL for 5b and 5g, and the least, Table 4 3.12 μg/mL was for 5f. […] Substituents with electron-withdrawing attributes, e.g., -NO2, -Cl, -OH on the aromatic ring, assert a great impact on the antibacterial activity of synthetic compounds. It is also observed that an increase in the number of -OH groups tend to enhance the activity ([Hosamani and Shingalapur, 2011]). Due to the difference in cell-wall composition of Gram + ve and -ve bacteria, different compounds show different features towards the same micro-organism ([Goszczyn’ska et al., 2015]).

[2] = Total reducing power (TRP assay); conditions: mean ± SD
Experimental: The process used for TRP was illustrated by ([Bibi et al., 2011]). The […] method is used for 100 μL of each solution, 200 μL Phosphate buffer (0.2 M, pH 6.6), and 250 μL of potassium ferricyanide was mixed and incubated at 50°C for 20 min, to this solution, 10 percent (200 μL) trichloroacetic acid was added, centrifugation was done at 3,000 rpm for 10 min, the supernatant was collected, added with FeCl3 (50 μL), and shifted to the microplate. Absorbance was recorded at 700 nm. Ascorbic acid (100 μg/mL DMSO) is the +ve control for the test, and dimethyl sulfoxide (DMSO) is the blank.
The primary mechanism of TRP assay is based on the compound’s capacity to reduce free radicals, which are generated during the procedure. i.e., Fe^3+ is reduced to Fe^2+ ([Lee et al., 2015]). Various factors determine the antioxidant potential of the compound; a few to explain include the chemical attributes, nature of antioxidant moieties, conditions and mechanism of the reaction, which accounts for the reason for a compound’s activity in one assay and none-to-less response in the other ([Francenia Santos-Sanchez et al., 2019]). However, compounds with hydroxyl and methoxy groups form the bases for potential candidates as an antioxidant ([Rakesh et al., 2015]).

[3] = Total antioxidant capacity (TAC assay); conditions: rank among the synthetic compounds
Experimental: This evaluation was based on the protocol by ([Bibi et al., 2011]). This mechanism’s key point is reducing Mo (VI) to Mo (V). A solution consisting of 4 mM Ammonium molybdate, 28 mM SodiumPhosphate, and 0.6 M Sulphuric acid is utilized, which forms Phosphate Molybdenum Complex which is green in color and gives absorption = […]. […] of the sample is added to […] of reagent, which is incubated at 95°C for one and a half hours and cooled to 25°C.
The antioxidant potential of test compounds was estimated by TAC &TRP assays. The spectrophotometric method was used to analyze the formation of the green-colored phosphomolibdenum compound. […] The findings are depicted in Figure 6.

Row | MIC [1] [µg/mL] | SMILES | TRP [2] [µg AAE/mg] | activity in the TAC assay (in words) [3]
1 | 25 (≈ 68 µM) | S=c1[nH]nc(Cc2c[nH]c3ccccc23)n1N=Cc1cccc(Cl)c1 [Compound 5f] |  | 
2 |  | COc1cccc(C=Nn2c(Cc3c[nH]c4ccccc34)n[nH]c2=S)c1 [Compound 5b] | 706.42 ± 0.004 | maximum activity
3 |  | Oc1ccc(C=Nn2c(Cc3c[nH]c4ccccc34)n[nH]c2=S)cc1 [Compound 5e] | 619.18 ± 0.010 | 
4 |  | Oc1cccc(C=Nn2c(Cc3c[nH]c4ccccc34)n[nH]c2=S)c1 [Compound 5a] | 592.26 ± 0.007 | 
5 | 25 (≈ 59 µM) | COc1cc(C=Nn2c(Cc3c[nH]c4ccccc34)n[nH]c2=S)cc(OC)c1OC [Compound 5g] | 642.67 ± 0.001 | 
